In brackets after ≈: the same amount, converted by molar mass. Read-outs that look alike come from different tables or passages of the source.
Assays:
S. aureus MRSA 12673 = assay: microbe, parasite or virus in culture; type: cell-based, Staphylococcus aureus; conditions: for MIC: raw MIC
From the text: (§1) Three bacterial strains of MRSA (N315, 12673, 6347) and two of Enterococcus spp. (E. faecium, E. faecalis) were used. With respect to MRSA, N315 represented a reference Van-susceptible strain (GenBank GCA_00000645.1) isolated from a patient while 12673 (Van-intermediately susceptible) and 6347 (a h-VISA which appears at frequency of <10^−5 to 10^−6 is composed of two subpopulations of bacteria: one susceptible and one intermediately resistant)[38] were clinical strains obtained from patients of The Clinical University Centre of Gdańsk (UCK). […] The clinical strain isolates originated from the collection of the Department of Pharmaceutical Technology and Biochemistry, Faculty of Chemistry, Gdańsk University of Technology.
(§2) The strains were grown in Mueller-Hinton broth (MH cation-adjusted, Becton Dickinson) or Brain Heart Infusion broth (BHI, Becton Dickinson), respectively. The cultivation was carried out in an aerobic atmosphere at 37 °C for 24 hours and, afterwards, the bacterial cultures were diluted in geometric progression with a proper broth. Next, 100 µl of each dilution was inoculated in an agar plate and incubated at 37 °C for 24 h. The next procedures included determination of Colony Forming Units (CFU)/ml and minimal inhibitory concentration (MIC) of the compounds in question. The latter procedure was carried out according to the microbroth dilution technique using 96-well plates. The MICs were evaluated by using the metabolic assay based on the resazurin dye. The assay was performed in triplicates.

S. aureus MRSA N315 = assay: microbe, parasite or virus in culture; type: cell-based, Staphylococcus aureus
From the text: as §1, §2

[1] = test system: S. aureus MRSA hetero-VISA 6347; assay: microbe, parasite or virus in culture; type: cell-based, Staphylococcus aureus; conditions: for MIC: raw MIC
From the text: as §1, §2

[2] = test system: Enterococcus faecalis 3937158; assay: microbe, parasite or virus in culture; type: cell-based; conditions: for MIC: raw MIC
From the text: as §1, §2

[3] = test system: Enterococcus faecium 3934825; assay: microbe, parasite or virus in culture; type: cell-based; conditions: for MIC: raw MIC
From the text: as §1, §2

sheep erythrocytes = assay: Erythrocyte lysis assay; type: cell-based; conditions: 37 °C, 1 hour, A450 nm; for cell lysis (haemolysis): 10^8 cells/ml, vs 4% Triton X-100, triplicates
Method: The protocol of the lysis assay is presented below.
To obtain sheep erythrocytes, 5 ml of fresh blood was centrifuged at 1000 × g for 10 min and washed 3 times with 0.9% NaCl. Cell suspension (final concentration of 10^8 cells/ml) in a volume of 75 µl was added to each well of the 96-well microtiter plate and incubated at 37 °C in the presence of the tested compounds. The range of their concentrations was 100–0.049 µM (diluted in saline solution), which included that of MIC values for the tested strains of the bacteria.
Plates with samples were incubated at 37 °C for 1 hour and then centrifuged at 1000 × g for 10 min to separate the unlysed erythrocytes. Next, the supernatant was transferred to a new plate. The absorbance (A) was measured spectrophotometrically at 450 nm of wavelength. The experiments were performed in triplicates.
The haemolysis percentage was calculated according to the equation presented by Sharma et al.[43]. The percentage of haemolysis = [(A450nm of test compound treated sample-A450nm of buffer treated sample)/(A450nm of 4%TritonX-100 treated samples-A450nm of buffer treated sample)] × 100.

[4] = first block, test a, repetition 1, read-out: MIC1a
[5] = first block, test a, repetition 2, read-out: MIC2a
[6] = first block, test a, repetition 3, read-out: MIC3a
[7] = first block, test b, repetition 1, read-out: MIC1b
[8] = first block, test b, repetition 2, read-out: MIC2b
[9] = first block, test b, repetition 3, read-out: MIC3b
[10] = test a, repetition 1, read-out: MIC1a
[11] = test a, repetition 2, read-out: MIC2a
[12] = test a, repetition 3, read-out: MIC3a
[13] = test b, repetition 1, read-out: MIC1b
[14] = test b, repetition 2, read-out: MIC2b
[15] = test b, repetition 3, read-out: MIC3b
[16] = same test as μM value, mean ± SD

Work on CC[C@H](C)[C@H](NC(=O)[C@H](CCCCN)NC(=O)[C@H](CCCCN)NC(=O)[C@H](C)NC(=O)[C@H](CC(C)C)NC(=O)[C@H](C)NC(=O)[C@H](C)NC(=O)[C@H](CC(C)C)NC(=O)[C@H](C)NC(=O)[C@H](CCCCN)NC(=O)[C@H](CC(C)C)NC(=O)[C@H](CC(N)=O)NC(=O)[C@@H](NC(=O)[C@H](CCCCN)NC(=O)CNC(=O)[C@H](CC(C)C)NC(=O)[C@H](CC(C)C)NC(=O)[C@H](Cc1ccc(O)cc1)NC(=O)CNC(=O)[C@H](C)NC(=O)c1cn(CCOCCOCCOCCNC(=O)[C@H]2NC(=O)[C@H]3NC(=O)[C@H](NC(=O)[C@@H]4NC(=O)[C@H](CC(N)=O)NC(=O)[C@H](NC(=O)[C@@H](CC(C)C)NC)[C@H](O)c5ccc(c(Cl)c5)Oc5cc4cc(c5O[C@@H]4O[C@H](CO)[C@@H](O)[C@H](O)[C@H]4O[C@H]4C[C@](C)(N)[C@H](O)[C@H](C)O4)Oc4ccc(cc4Cl)[C@H]3O)c3ccc(O)c(c3)-c3c(O)cc(O)cc32)nn1)[C@@H](C)CC)C(=O)N[C@@H](CC(C)C)C(N)=O [conjugate I, Van-PEG3-TP10] yielded an MIC (S. aureus MRSA 12673; [4]) of 1.56 µM (≈ 6.06 µg/mL), an MIC (S. aureus MRSA 12673; [5]) of 3.12 µM (≈ 12.1 µg/mL) and an MIC (S. aureus MRSA 12673; [6]) of 1.56 µM (≈ 6.06 µg/mL). For the same molecule, the MIC (S. aureus MRSA 12673; [7]) was 1.56 µM (≈ 6.06 µg/mL), the MIC (S. aureus MRSA 12673; [8]) was 3.12 µM (≈ 12.1 µg/mL) and the MIC (S. aureus MRSA 12673; [9]) was 3.12 µM (≈ 12.1 µg/mL). For the same molecule, the MIC (S. aureus MRSA 12673; [10]) was 6.06 µM (≈ 23.5 µg/mL), the MIC (S. aureus MRSA 12673; [11]) was 6.06 µM (≈ 23.5 µg/mL) and the MIC (S. aureus MRSA 12673; [12]) was 6.06 µM (≈ 23.5 µg/mL). It also gave an MIC (S. aureus MRSA 12673; [13]) of 6.06 µM (≈ 23.5 µg/mL), an MIC (S. aureus MRSA 12673; [14]) of 12.12 µM (≈ 47.1 µg/mL) and an MIC (S. aureus MRSA 12673; [15]) of 12.12 µM (≈ 47.1 µg/mL). The “MIC in (μg/ml)” value (S. aureus MRSA 12673; [16]) was 6.1 ± 3.1 µg/mL (≈ 1.57 µM), the “MIC” value (S. aureus MRSA N315; microbroth dilution, 96-well, resazurin, 37 °C, 24 h, mean ± SD, at least three independent experiments in triplicates) was 1.6 ± 0.9 µM (≈ 6.21 µg/mL) and the MIC (S. aureus MRSA N315; microbroth dilution, 96-well, resazurin, 37 °C, 24 h, mean ± SD, at least three independent experiments in triplicates, read-out: MIC) was 1.6 µM (≈ 6.21 µg/mL). The MIC (S. aureus MRSA N315; raw MIC, first block, test a, repetition 1, read-out: MIC1a) was 1.56 µM (≈ 6.06 µg/mL), the MIC (S. aureus MRSA N315; raw MIC, first block, test a, repetition 2, read-out: MIC2a) was 3.12 µM (≈ 12.1 µg/mL) and the MIC (S. aureus MRSA N315; raw MIC, first block, test a, repetition 3, read-out: MIC3a) was 1.56 µM (≈ 6.06 µg/mL). It also gave an MIC (S. aureus MRSA N315; raw MIC, first block, test b, repetition 1, read-out: MIC1b) of 3.125 µM (≈ 12.1 µg/mL), an MIC (S. aureus MRSA N315; raw MIC, first block, test b, repetition 2, read-out: MIC2b) of 1.56 µM (≈ 6.06 µg/mL) and an MIC (S. aureus MRSA N315; raw MIC, first block, test b, repetition 3, read-out: MIC3b) of 1.56 µM (≈ 6.06 µg/mL). The MIC (S. aureus MRSA N315; raw MIC, test a, repetition 1, read-out: MIC1a) was 6.06 µM (≈ 23.5 µg/mL), the MIC (S. aureus MRSA N315; raw MIC, test a, repetition 2, read-out: MIC2a) was 12.12 µM (≈ 47.1 µg/mL) and the MIC (S. aureus MRSA N315; raw MIC, test a, repetition 3, read-out: MIC3a) was 6.06 µM (≈ 23.5 µg/mL). It also gave an MIC (S. aureus MRSA N315; raw MIC, test b, repetition 1, read-out: MIC1b) of 6.06 µM (≈ 23.5 µg/mL), an MIC (S. aureus MRSA N315; raw MIC, test b, repetition 2, read-out: MIC2b) of 6.06 µM (≈ 23.5 µg/mL) and an MIC (S. aureus MRSA N315; raw MIC, test b, repetition 3, read-out: MIC3b) of 6.06 µM (≈ 23.5 µg/mL). The “MIC in (μg/ml)” value (S. aureus MRSA N315; [16]) was 6.1 ± 2.5 µg/mL (≈ 1.57 µM), the MIC [1, 4] was 1.56 µM (≈ 6.06 µg/mL) and the MIC [1, 5] was 1.56 µM (≈ 6.06 µg/mL). The MIC [1, 6] was 0.78 µM (≈ 3.03 µg/mL), the MIC [1, 7] was 1.56 µM (≈ 6.06 µg/mL) and the MIC [1, 8] was 1.56 µM (≈ 6.06 µg/mL). For the same molecule, the MIC [1, 9] was 1.56 µM (≈ 6.06 µg/mL), the MIC [1, 10] was 6.06 µM (≈ 23.5 µg/mL) and the MIC [1, 11] was 6.06 µM (≈ 23.5 µg/mL). The MIC [1, 12] was 3.03 µM (≈ 11.8 µg/mL), the MIC [1, 13] was 6.06 µM (≈ 23.5 µg/mL) and the MIC [1, 14] was 6.06 µM (≈ 23.5 µg/mL). For the same molecule, the MIC [1, 15] was 6.06 µM (≈ 23.5 µg/mL), the “MIC in (μg/ml)” value [1, 16] was 6.1 ± 1.2 µg/mL (≈ 1.57 µM) and the MIC [2, 4] was 6.25 µM (≈ 24.3 µg/mL). For the same molecule, the MIC [2, 5] was 3.1 µM (≈ 12 µg/mL), the MIC [2, 6] was 6.25 µM (≈ 24.3 µg/mL) and the MIC [2, 7] was 6.25 µM (≈ 24.3 µg/mL). The MIC [2, 8] was 6.25 µM (≈ 24.3 µg/mL), the MIC [2, 9] was 3.1 µM (≈ 12 µg/mL) and the MIC [2, 10] was 24.27 µM (≈ 94.2 µg/mL). The MIC [2, 11] was 12.14 µM (≈ 47.1 µg/mL), the MIC [2, 12] was 24.27 µM (≈ 94.2 µg/mL) and the MIC [2, 13] was 24.27 µM (≈ 94.2 µg/mL). For the same molecule, the MIC [2, 14] was 24.27 µM (≈ 94.2 µg/mL), the MIC [2, 15] was 12.14 µM (≈ 47.1 µg/mL) and the “MIC in (μg/ml)” value [2, 16] was 24.3 ± 6.3 µg/mL (≈ 6.26 µM). It also gave an MIC [3, 4] of 50 µM (≈ 194 µg/mL), an MIC [3, 5] of 50 µM (≈ 194 µg/mL) and an MIC [3, 6] of 50 µM (≈ 194 µg/mL). For the same molecule, the MIC [3, 7] was 25 µM (≈ 97.1 µg/mL), the MIC [3, 8] was 50 µM (≈ 194 µg/mL) and the MIC [3, 9] was 50 µM (≈ 194 µg/mL). It also gave an MIC [3, 10] of 194.2 µM (≈ 754 µg/mL), an MIC [3, 11] of 194.2 µM (≈ 754 µg/mL) and an MIC [3, 12] of 194.2 µM (≈ 754 µg/mL). It also gave an MIC [3, 13] of 97.1 µM (≈ 377 µg/mL), an MIC [3, 14] of 194.2 µM (≈ 754 µg/mL) and an MIC [3, 15] of 194.2 µM (≈ 754 µg/mL). The “MIC in (μg/ml)” value [3, 16] was 194.2 ± 39.6 µg/mL (≈ 50 µM), the “cell lysis (haemolysis)” value (sheep erythrocytes; 12.5 µM) was 15% and the “cell lysis (haemolysis)” value (sheep erythrocytes; 100 µM) was 93%. The “hemolysis at MIC concentrations” value (sheep erythrocytes; 6.25–0.78 μM) was “lack of hemolysis”.

Reference: publication PMC6397271 (Scientific Reports, 2019)
